Where two headings read alike, the source gives them in different places.
Legend:
[1] = Tsien, 1980; read-out: Kd (Ca^2+); cited from earlier work
[2] = EDTA analogs vs EDTA parent; cited from earlier work
[3] = Release of Ca^2+ after flash photolysis; settings: after a submillisecond light flash
[4] = Mg^2+ affinity (dissociation constant) of the chelators; format: binding
[5] = Ca^2+ affinity (dissociation constant) of the chelators; format: binding; settings: for Ca^2+ affinity (rank in words): conformational explanation of Table I
[6] = Ca^2+:Mg^2+ selectivity (rejection of Mg^2+); format: binding; settings: 22° C., 0.1M ionic strength
[7] = cytosolic free calcium 2+ typical for resting cells; cited from earlier work

Compound: O=C(O)CN(CC(=O)O)c1ccccc1OCCOc1ccccc1N(CC(=O)O)CC(=O)O [BAPTA, 1,2-bis(2-aminophenoxy)ethane N,N,N'N'-tetraacetic acid]
- Kd [1]: 100 nM

Compound: O=C(O)CN(CC(=O)O)[C@@H]1CCCC[C@@H]1N(CC(=O)O)CC(=O)O [cis-cyclohexanediyl analog]
- weaker Ca^2+ affinity than the parent [2]: 17 -fold

Compound: O=C(O)CN(CC(=O)O)[C@H]1CCC[C@@H]1N(CC(=O)O)CC(=O)O (relative stereo) [trans-cyclopentanediyl analog]
- higher affinity for Ca^2+ than the parent [2]: 3.7 -fold

Compound: Cc1ccc(N(CC(=O)O)CC(=O)O)c(O[C@H]2CCC[C@H]2Oc2cc(C(O)c3cc4c(cc3[N+](=O)[O-])OCO4)ccc2N(CC(=O)O)CC(=O)O)c1 (relative stereo) [nitr-7, cis-1-(2-bis(carboxymethyl)amino-5-(1-hydroxy-1-(2-nitro-4,5-methylenedioxyphenyl)methyl)phenoxy)-2-(2-bis(carboxymethyl)amino-5-methylphenoxy)cyclopentane]
- exponential time constant of Ca^2+ release [3]: 1.8 millisecond
- Kd ([4]; 22° C., 0.1M ionic strength, read-out: dissociation constant for Mg^2+): 5.7 mM
- Kd ([5]; 22° C., 0.1M ionic strength, before photolysis, read-out: dissociation constant for Ca^2+): 53 nM
- Ca^2+ affinity (rank in words) [5]: highest Ca^2+ affinities
- Rejection of Mg^2+ [6]: > 10^5

Compound: O=C(O)CN(CC(=O)O)[C@H]1CCCC[C@@H]1N(CC(=O)O)CC(=O)O (relative stereo) [trans-cyclohexanediyl analog]
- stronger Ca^2+ affinity than the parent [2]: 324 -fold

Compound: COC(c1ccc(N(CC(=O)O)CC(=O)O)c(OCCOc2cc(C)ccc2N(CC(=O)O)CC(=O)O)c1)c1cc2c(cc1[N+](=O)[O-])OCO2 (stereo not drawn) [nitr-2]
- fraction of unphotolyzed chelator molecules bearing calcium 2+ ions [7]: 1/2

Compound: Cc1ccc(N(CC(=O)O)CC(=O)O)c(O[C@@H]2CCC[C@@H]2Oc2cc(C(=O)c3cc4c(cc3N=O)OCO4)ccc2N(CC(=O)O)CC(=O)O)c1 (relative stereo) [VIII]
- Kd ([5]; after photolysis of nitr-7 to the nitrosobenzophenone, read-out: dissociation constant for Ca^2+ upon photolysis): 3000 nM

Compound: Cc1ccc(N(CC(=O)O)CC(=O)O)c(O[C@@H]2CCC[C@@H]2Oc2ccccc2N(CC(=O)O)CC(=O)O)c1 (relative stereo) [Va]
- Kd ([4]; Table I, Chelator V after saponification, read-out: Kd for Mg^2+): 4.2 mM
- Kd ([5]; Table I, Chelator V after saponification, before photolysis, read-out: Kd for Ca^2+): 20 nM
- Ca^2+ affinity (rank in words) [5]: highest Ca^2+ affinities
- higher affinity for Ca^2+ than the trans-isomer ([5]; cyclopentanediyl series, cis (Va) vs trans (Vb)): 300 -fold

From patent US4806604A, “Photosensitive calcium chelators” (Regents of the University of California, priority 1987, dated 1989)
